Source: the CheMixHub viscosity set

Test: xn = mol fraction of the nth substance listed

CCC(C)O (configuration not stated) + CCCCO
Details | viscosity [mPa·s]
303.15 K, 101 kPa, x2 = 0.8988 | 2.875

Nc1ccccc1Cl + CCOCCO
303.15 K, 101 kPa
Details | viscosity [mPa·s]
x1 = 0.0966 | 2.088
x1 = 0.1696 | 2.266
x1 = 0.2725 | 2.507
x1 = 0.3613 | 2.709
x1 = 0.4791 | 2.967
x1 = 0.5648 | 3.147
x1 = 0.68 | 3.372
x1 = 0.7804 | 3.544
x1 = 0.8884 | 3.696

Cc1ccc(O)cc1 + c1ccncc1
viscosity [mPa·s], 101 kPa
Details | x1 = 0.163 | x1 = 0.2353 | x1 = 0.3282 | x1 = 0.3907 | x1 = 0.4666 | x1 = 0.527 | x1 = 0.6065 | x1 = 0.6911 | x1 = 0.7846 | x1 = 0.881
293.15 K | 1.451 | 1.808 | 2.535 | 3.105 | 4.215 | 5.315 | 7.365 | 10.04 | 13.24 | 16.16
303.15 K | 1.363 | 1.628 | 2.115 | 2.565 | 3.31 | 4.08 | 5.265 | 6.635 | 7.97 | 9.26
313.15 K | 1.139 | 1.37 | 1.727 | 2.065 | 2.6 | 3.115 | 3.83 | 4.66 | 5.415 | 6.02

CCC(C)O (configuration not stated) + CC#N
Details | viscosity [mPa·s]
293.15 K, 101 kPa, x2 = 0.1644 | 1.655

CC(O)CC(C)(C)O (configuration not stated) + CN(C)c1ccccc1
viscosity [mPa·s], 101 kPa
Details | x1 = 0.0947 | x1 = 0.1893 | x1 = 0.2866 | x1 = 0.3878 | x1 = 0.4988 | x1 = 0.5875 | x1 = 0.6895 | x1 = 0.7899 | x1 = 0.8859
308.15 K | 1.042 | 1.107 | 1.216 | 1.395 | 1.761 | 2.037 | 2.999 | 5.285 | 9.275
318.15 K | 0.8643 | 0.9274 | 1.015 | 1.185 | 1.416 | 1.688 | 2.505 | 4.534 | 8.117

O=S(=O)(Cl)Cl + Cc1cc(C)cc(C)c1
298.15 K, 101 kPa
Details | viscosity [mPa·s]
x1 = 0.172 | 0.6735
x1 = 0.323 | 0.6885
x1 = 0.515 | 0.6997
x1 = 0.645 | 0.7028
x1 = 0.669 | 0.7025
x1 = 0.804 | 0.6976

Cc1cccc(C)c1 + CCCCCCO
101 kPa
Details | viscosity [mPa·s]
303.15 K, x2 = 0.2002 | 0.683
313.15 K, x2 = 0.5 | 0.965
323.15 K, x2 = 0.4001 | 0.693

O=S1(=O)CCCC1 + Cc1ccccc1
viscosity [mPa·s], 101.3 kPa
Details | x2 = 0.1267 | x2 = 0.2458 | x2 = 0.3587 | x2 = 0.4651 | x2 = 0.5662 | x2 = 0.6617 | x2 = 0.7527 | x2 = 0.8392 | x2 = 0.9206
303.15 K | 6.052 | 3.95 | 2.732 | 2.029 | 1.557 | 1.173 | 0.9289 | 0.7548 | 0.6265
323.15 K | 3.906 | 2.662 | 1.919 | 1.458 | 1.151 | 0.8828 | 0.7151 | 0.5893 | 0.4967

CCCCOCCOCCO + ClC(Cl)=C(Cl)Cl
298.15 K, 101.33 kPa
Details | viscosity [mPa·s]
x1 = 0.0092 | 0.859
x1 = 0.0253 | 0.883
x1 = 0.0385 | 0.91
x1 = 0.0481 | 0.929
x1 = 0.0583 | 0.95
x1 = 0.0816 | 1.001
x1 = 0.0932 | 1.03
x1 = 0.1188 | 1.09
x1 = 0.1559 | 1.186
x1 = 0.1903 | 1.289
x1 = 0.2322 | 1.413
x1 = 0.2748 | 1.557
x1 = 0.3127 | 1.691
x1 = 0.3556 | 1.851
x1 = 0.3911 | 2
x1 = 0.4295 | 2.16
x1 = 0.4585 | 2.288
x1 = 0.4917 | 2.445
x1 = 0.531 | 2.635
x1 = 0.575 | 2.845
x1 = 0.6181 | 3.066
x1 = 0.666 | 3.31
x1 = 0.7112 | 3.548
x1 = 0.7734 | 3.894
x1 = 0.8415 | 4.283
x1 = 0.8983 | 4.615
x1 = 0.929 | 4.805
x1 = 0.9482 | 4.918
x1 = 0.9696 | 5.061
x2 = 0.0169 | 5.131

Cc1ccccc1N + CC(=O)O
viscosity [mPa·s], 100 kPa
Details | x1 = 0.1051 | x1 = 0.1945 | x1 = 0.2862 | x1 = 0.3854 | x1 = 0.4952 | x1 = 0.5994 | x1 = 0.6874 | x1 = 0.7658 | x1 = 0.8879
303.15 K | 1.3 | 1.51 | 1.73 | 1.96 | 2.2 | 2.43 | 2.62 | 2.79 | 3.04
308.15 K | 1.2 | 1.38 | 1.56 | 1.75 | 1.96 | 2.15 | 2.31 | 2.44 | 2.65
313.15 K | 1.11 | 1.27 | 1.42 | 1.59 | 1.76 | 1.93 | 2.06 | 2.17 | 2.34
318.15 K | 1.02 | 1.15 | 1.28 | 1.42 | 1.57 | 1.7 | 1.81 | 1.91 | 2.04
